Key:
[1] = test system: DLD-1; test: Cytotoxicity against human DLD1 cells after 72 hrs by MTT assay; format: functional, cell-based; details: for IC50: DLD-1, 72 h
[2] = (§1) Cytotoxicity against human KB-V1/Vbl cells after 72 hrs by MTT assay; format: functional, cell-based
[3] = test system: KB-V1/Vbl; test: as §1; format: functional, cell-based
[4] = test system: HT-29; test: Cytotoxicity against human HT-29 cells after 72 hrs by MTT assay; format: functional, cell-based; details: for IC50: HT-29, 72 h
[5] = (§2) Cytotoxicity against human MCF7/Topo cells after 72 hrs by MTT assay; format: functional, cell-based
[6] = test system: MCF7/Topo; test: as §2; format: functional, cell-based
[7] = test system: PANC-1; test: Cytotoxicity against human PANC1 cells after 72 hrs by MTT assay; format: functional, cell-based; details: for IC50: PANC-1, 72 h
[8] = test system: 518A2; test: Cytotoxicity against human 518A2 cells after 72 hrs by MTT assay; format: functional, cell-based; details: for IC50: 518A2, 72 h
[9] = test system: HCT-116; test: Cytotoxicity against human HCT116 cells after 72 hrs by MTT assay; format: functional, cell-based; details: for IC50: HCT-116, 72 h
[10] = (§3) Cytotoxicity against human U87 cells after 72 hrs by MTT assay; format: functional, cell-based, U-87MG ATCC; details: U-87 MG
[11] = test system: U-87MG ATCC; test: as §3; format: functional, cell-based

SMILES | Activity [1] | IC50 [1] | IC50 [2] | Activity [3] | Activity [4] | IC50 [4] | IC50 [5] | Activity [6] | Activity [7] | IC50 [7] | Activity [8] | IC50 [8] | Activity [9] | IC50 [9] | IC50 [10] | Activity [11]
CN1C/C(=C\c2ccc(F)c(F)c2)C(=O)/C(=C/c2ccc(F)c(F)c2)C1 | Dose-dependent effect | 470 nM | 990 nM | Dose-dependent effect | Dose-dependent effect | 1500 nM | 1300 nM | Dose-dependent effect | Dose-dependent effect | 1500 nM | Dose-dependent effect | 1500 nM | Dose-dependent effect | 510 nM |  | 
CCN1C/C(=C\c2cc(F)c(F)cc2F)C(=O)/C(=C/c2cc(F)c(F)cc2F)C1 | Dose-dependent effect | 520 nM | 640 nM | Dose-dependent effect | Dose-dependent effect | 690 nM | 1100 nM | Dose-dependent effect | Dose-dependent effect | 830 nM | Dose-dependent effect | 1500 nM | Dose-dependent effect | 510 nM |  | 
CCN1C/C(=C\c2c(F)cc(F)cc2F)C(=O)/C(=C/c2c(F)cc(F)cc2F)C1 | Dose-dependent effect | 1400 nM | 1200 nM | Dose-dependent effect | Dose-dependent effect | 2000 nM | 2100 nM | Dose-dependent effect | Dose-dependent effect | 1300 nM | Dose-dependent effect | 2000 nM | Dose-dependent effect | 1100 nM |  | 
O=C1/C(=C/c2ccc(F)c(F)c2)CSC/C1=C\c1ccc(F)c(F)c1 | Dose-dependent effect | 1800 nM | 760 nM | Dose-dependent effect | Dose-dependent effect | 1300 nM | 1600 nM | Dose-dependent effect | Dose-dependent effect | 2100 nM | Dose-dependent effect | 1500 nM | Dose-dependent effect | 2000 nM | 2300 nM | Dose-dependent effect
CCN1C/C(=C\c2cc(F)cc(F)c2)C(=O)/C(=C/c2cc(F)cc(F)c2)C1 | Dose-dependent effect | 640 nM | 2700 nM | Dose-dependent effect | Dose-dependent effect | 2100 nM | 1000 nM | Dose-dependent effect | Dose-dependent effect | 1100 nM | Dose-dependent effect | 3300 nM | Dose-dependent effect | 550 nM |  | 
CCN1C/C(=C\c2ccccc2F)C(=O)/C(=C/c2ccccc2F)C1 | Dose-dependent effect | 930 nM | 3100 nM | Dose-dependent effect | Dose-dependent effect | 5200 nM | 2000 nM | Dose-dependent effect | Dose-dependent effect | 1700 nM | Dose-dependent effect | 1800 nM | Dose-dependent effect | 1800 nM |  | 
O=C1/C(=C/c2ccc(S(F)(F)(F)(F)F)cc2)CSC/C1=C\c1ccc(S(F)(F)(F)(F)F)cc1 | Dose-dependent effect | 750 nM | 570 nM | Dose-dependent effect | Dose-dependent effect | 980 nM | 760 nM | Dose-dependent effect | Dose-dependent effect | 840 nM | Dose-dependent effect | 850 nM | Dose-dependent effect | 640 nM | 2100 nM | Dose-dependent effect
CCN1C/C(=C\c2ccc(F)cc2F)C(=O)/C(=C/c2ccc(F)cc2F)C1 | Dose-dependent effect | 960 nM | 1200 nM | Dose-dependent effect | Dose-dependent effect | 3100 nM | 1800 nM | Dose-dependent effect | Dose-dependent effect | 2300 nM | Dose-dependent effect | 2400 nM | Dose-dependent effect | 2000 nM |  | 
O=C(/C=C/c1ccc(S(F)(F)(F)(F)F)cc1)/C=C/c1ccc(S(F)(F)(F)(F)F)cc1 | Dose-dependent effect | 3200 nM | 3600 nM | Dose-dependent effect | Dose-dependent effect | 1800 nM | 3400 nM | Dose-dependent effect | Dose-dependent effect | 3100 nM | Dose-dependent effect | 4400 nM | Dose-dependent effect | 1000 nM | 8700 nM | Dose-dependent effect
CN1C/C(=C\c2ccccc2F)C(=O)/C(=C/c2ccccc2F)C1 | Dose-dependent effect | 810 nM | 1800 nM | Dose-dependent effect | Dose-dependent effect | 2200 nM | 2300 nM | Dose-dependent effect | Dose-dependent effect | 2200 nM | Dose-dependent effect | 1800 nM | Dose-dependent effect | 1300 nM |  | 
O=C1/C(=C/c2ccc(S(F)(F)(F)(F)F)cc2)CCC/C1=C\c1ccc(S(F)(F)(F)(F)F)cc1 | Dose-dependent effect | 860 nM | 1900 nM | Dose-dependent effect | Dose-dependent effect | 1100 nM | 1800 nM | Dose-dependent effect | Dose-dependent effect | 2000 nM | Dose-dependent effect | 1800 nM | Dose-dependent effect | 710 nM | 3200 nM | Dose-dependent effect

Reference: ChEMBL document CHEMBL4043139, “Fluoro and pentafluorothio analogs of the antitumoral curcuminoid EF24 with superior antiangiogenic and vascular-disruptive effects” (Bioorg Med Chem, 2017)
